Measurements reported in patent publication US20100069502A1, “Assay” (priority 2006, published 2010).

Assays:
Format in all cases: cell-based
[1] = tested on: PP5; experiment: PP5 levels by immunoblotting in HEK293 cell lysates; conditions: HEK293 cells, 10 mM phenformin, antibody against TPR domains
Method: (§1) To study the effects of biguanide on the activity of protein phosphatases, HEK293 cell lysates either untreated or treated with biguanide (10 mM phenformin in this example—as described above) were either immunoblotted or assayed for specific protein phosphatase activity by using combinations of phosphatase inhibitors and activators, as well as different phosphorylated substrates.
Since the activity of PP5 in HEK293 cells is low, the levels of PP5 were assessed by immunoblotting using an antibody against the TPR domains of the protein.

[2] = tested on: PP1; experiment: PP1 phosphorylase phosphatase activity in HEK293 cell lysates; conditions: 10 mM phenformin, 32P-labelled phosphorylase a, 4 mM okadaic acid
Method: (§2) A Levels of phosphorylation of AMPK at Thr172 in 4 untreated and 4 treated samples. Anti-PP5 TPR domain antibody is used as a loading control. Molecular weights (kDa) are indicated to the left of the panels. B PP1 phosphorylase phosphatase activity in treated and untreated HEK293 cell lysates using phosphorylase a as substrate, in the presence of 4 nM okadaic acid. Data are mean±SEM for four samples measured in triplicate. C PP2A phosphorylase phosphatase activity in treated and untreated HEK293 cell lysates using phosphorylase a as substrate, in the presence of 200 nM I-2. Data are mean±SEM for four samples measured in triplicate. […]
The activity of PP1 in response to phenformin was assessed using ^32P-labelled phosphorylase a as substrate with […] okadaic acid included in the reaction in order to inhibit the activity of PP2A and EGTA (0.1-2 mM) to inhibit metal ion activated protein phosphatases. No change in PP1 phosphorylase phosphatase activity could be detected between unstimulated and 10 mM-phenformin stimulated cell lysates (FIG. 1B).

[3] = tested on: PP2A; experiment: PP2A phosphorylase phosphatase activity in HEK293 cell lysates; conditions: 10 mM phenformin, 32P labelled phosphorylase a, 200 nM I-2
Method: as §2
The activity of PP2A in response to phenformin was also assessed using ^32P labelled phosphorylase a as substrate, but for this assay 200 nM I-2 and EGTA (0.1-2 mM) to inhibit metal ion activated protein phosphatases was included to inhibit PP1. No change in the PP2A phosphorylase phosphatase activity could be detected between unstimulated and 10 mM-phenformin stimulated cell lysates (FIG. 1C).

[4] = target: T1, PPM1F (Homo sapiens, UniProt P49593); experiment: Activity of PPM phosphatase immunoprecipitated from HEK293 cell lysates, casein substrate
T1 construct: endogenous in cells; host or cells: HEK293
T1 sequence (P49593 1-454): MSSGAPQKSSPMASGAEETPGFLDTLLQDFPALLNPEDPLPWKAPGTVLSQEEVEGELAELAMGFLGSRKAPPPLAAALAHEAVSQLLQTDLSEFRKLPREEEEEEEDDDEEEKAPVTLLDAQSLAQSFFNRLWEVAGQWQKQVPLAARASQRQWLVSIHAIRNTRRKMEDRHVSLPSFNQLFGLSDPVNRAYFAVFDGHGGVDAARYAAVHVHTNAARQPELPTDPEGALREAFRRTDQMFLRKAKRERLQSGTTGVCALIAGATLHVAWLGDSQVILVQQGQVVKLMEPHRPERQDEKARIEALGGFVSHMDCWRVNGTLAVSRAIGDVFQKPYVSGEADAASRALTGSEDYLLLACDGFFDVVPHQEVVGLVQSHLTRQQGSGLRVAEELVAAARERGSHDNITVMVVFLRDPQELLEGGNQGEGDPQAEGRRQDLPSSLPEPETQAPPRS
Method: PPM1F is immunopelleted with antibodies raised the amino acid sequence […] and the phosphatase activity in the immunopellet is measured in a protein phosphatase assay using 32P-labelled casein as substrate in the presence of 10 mM Mg2+ or Mn2+ ions and 5 μM okadaic acid.
(§3) PPM phosphatase activity in HEK293 cell lysates either untreated or treated with 10 mM phenformin for 1 hour. Individual isoforms were immunoprecipitated from control or phenformin-treated cell lysates and activity measured using ^32P labelled casein as substrate in the presence of 10 mM MgAc and […] acid. Data are mean activities for assays performed in triplicate.
To determine with greater certainty which PPM phosphatases are affected by biguanide, the PPM phosphatase activity associated with each of the PPM enzymes was assessed. In this example, the biguanides are metformin and phenformin. […] No change could be detected in the PPM phosphatases associated with PPM1A1, PPM1B1, PPM1B2, PPM1D, PPM1G, ILKAP, Nerpp, PDPC1 or PDPC2. […] Following immunoprecipitation and immunoblotting of the PPM1E immunoprecipitate from untreated HEK293 cells, no signal could be detected using an antibody directed against PPM1E.

[5] = tested on: PPM phosphatase; experiment: Mg2+ dependent, okadaic acid resistant casein phosphatase (PPM phosphatase) activity in HEK293 cell lysates; conditions: HEK293 cells, 2 mM metformin
Method: (§4) A PPM phosphatase activity in treated and untreated HEK293 cell lysates using casein as substrate in the presence of 10 mM MgAc and 5 μM okadaic acid. Data are mean±SEM with five independent samples measured in duplicate. (p<0.001). B PPM phosphatase activity in treated and untreated HeLa cell lysates using casein as substrate in the presence of 10 mM MgAc and 5 μM okadaic acid. Data are mean±SEM with four independent samples measured in duplicate. (p<0.001).
as §1
(§5) The activity of PP2C (PPM1) and related members of the PPM family was assessed using ^32P-labelled casein as substrate with 5 μM okadaic acid included in the reaction to inhibit PP2A, and 10 mM magnesium acetate, which is known to be required for the activity of PP2C (Ingebritsen and Cohen, 1983 Science vol 221, pp 331-338; Ingebritsen et al., 1983 Eur J Biochem vol 132, pp 263-274).

[6] = tested on: PPM phosphatase; experiment: Mg2+ dependent, okadaic acid resistant casein phosphatase (PPM phosphatase) activity in HeLa cell lysates; conditions: HeLa cells, 2 mM metformin
Method: as §4, §5
To test whether phenformin is able to have similar effects in this cell line, PPM phosphatase activity in HeLa cells either untreated or treated with 10 mM phenformin was assessed. Again, a ˜20% decrease in PPM phosphatase activity could be observed in cells treated with phenformin (FIG. 2B). In this experiment, the activity of many PP2C isoforms is measured, and the 20% decrease observed may represent a more severe decrease in activity of only one such isoform.

[7] = target: T2, PPM1E (Homo sapiens, UniProt Q8WY54); experiment: Activity of PPM phosphatase immunoprecipitated from HEK293 cell lysates, casein substrate; conditions: HEK293 cells, 2 mM metformin for 10 minutes prior to lysis
T2 construct: The PPM1A1 and PPM1E isoforms were immunoprecipitated in triplicate from untreated or metformin-treated HEK293 cell lysates; endogenous in cells; host or cells: HEK293
T2 sequence (Q8WY54 1-755): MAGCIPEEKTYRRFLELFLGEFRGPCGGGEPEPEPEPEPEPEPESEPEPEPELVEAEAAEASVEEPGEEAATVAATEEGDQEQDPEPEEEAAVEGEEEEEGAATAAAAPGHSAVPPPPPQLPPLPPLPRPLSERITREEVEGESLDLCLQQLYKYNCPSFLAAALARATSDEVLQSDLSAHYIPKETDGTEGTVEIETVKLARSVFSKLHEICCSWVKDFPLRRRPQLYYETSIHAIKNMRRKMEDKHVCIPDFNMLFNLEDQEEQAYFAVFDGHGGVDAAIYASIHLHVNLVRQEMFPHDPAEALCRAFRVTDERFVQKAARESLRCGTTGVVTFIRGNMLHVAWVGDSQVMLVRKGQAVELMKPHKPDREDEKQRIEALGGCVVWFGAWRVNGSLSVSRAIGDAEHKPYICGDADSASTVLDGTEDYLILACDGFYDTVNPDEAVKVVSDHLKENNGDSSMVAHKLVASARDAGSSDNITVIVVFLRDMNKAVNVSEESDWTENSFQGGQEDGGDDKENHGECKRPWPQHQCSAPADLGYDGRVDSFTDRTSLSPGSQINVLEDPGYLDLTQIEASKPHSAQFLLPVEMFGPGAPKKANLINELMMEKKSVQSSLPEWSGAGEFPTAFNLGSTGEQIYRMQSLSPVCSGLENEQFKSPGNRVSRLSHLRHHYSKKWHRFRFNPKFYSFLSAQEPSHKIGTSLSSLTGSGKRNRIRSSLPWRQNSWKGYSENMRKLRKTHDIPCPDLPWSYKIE
Method: PPM1E is immunopelleted with antibodies raised the amino acid sequence […] and the phosphatase activity in the immunopellet is measured in a protein phosphatase assay using 32P-labelled casein as substrate in the presence of 10 mM Mg2+ or Mn2+ ions and 5 μM okadaic acid.
as §3
To determine with greater certainty which PPM phosphatases are affected by biguanide, the PPM phosphatase activity associated with each of the PPM enzymes was assessed. […] No change could be detected in the PPM phosphatases associated with PPM1A1, PPM1B1, PPM1B2, PPM1D, PPM1G, ILKAP, Nerpp, PDPC1 or PDPC2. […] Following immunoprecipitation and immunoblotting of the PPM1E immunoprecipitate from untreated HEK293 cells, no signal could be detected using an antibody directed against PPM1E.
HEK293 cells were treated with 2 mM metformin for 10 minutes prior to lysis. […] Control immunoprecipitations were preformed in triplicate for each lysate using pre-immune antibody and subtracted from the activity calculated for the PPM phosphatase immunoprecipitations. […]

[H]/N=C(/N)N/C(=N/[H])NCCc1ccccc1 [phenformin, phenylethylbiguanide]
levels of PP5 [1]: no effect | PP1 phosphorylase phosphatase activity [2]: no effect | PP2A phosphorylase phosphatase activity [3]: no effect | activity of immunoprecipitated PPM1F, % of the levels of untreated cells ([4]; HEK293 cells treated with phenformin): ~60% | decrease in activity of immunoprecipitated PPM1F ([4]; HEK293 cells, 10 mM phenformin): ~40%

CN(C)C(=N)N=C(N)N [metformin, 1-(diaminomethylidene)-3,3-dimethyl-guanidine]
decrease in PPM phosphatase activity [5]: 20% | decrease in PPM phosphatase activity [6]: 20% | activity of immunoprecipitated PPM1E [7]: almost completely ablated | activity of immunoprecipitated PPM1E ([7]; listed as Metformin): Substantial specific knockdown
